Assay results published in ChEMBL document CHEMBL3769376, “Discovery of I-BRD9, a Selective Cell Active Chemical Probe for Bromodomain Containing Protein 9 Inhibition” (J Med Chem, 2016).
Activity calls are given as the source filed them. No cut-off for these calls is given here.

Key:
[1] = biological target: T1, Bromodomain-containing protein 9 (Homo sapiens, UniProt Q9H8M2); experiment: Inhibition of BRD9 (unknown origin) incubated in dark for 30 mins by TR-FRET assay
T1 sequence (Q9H8M2 whole entry): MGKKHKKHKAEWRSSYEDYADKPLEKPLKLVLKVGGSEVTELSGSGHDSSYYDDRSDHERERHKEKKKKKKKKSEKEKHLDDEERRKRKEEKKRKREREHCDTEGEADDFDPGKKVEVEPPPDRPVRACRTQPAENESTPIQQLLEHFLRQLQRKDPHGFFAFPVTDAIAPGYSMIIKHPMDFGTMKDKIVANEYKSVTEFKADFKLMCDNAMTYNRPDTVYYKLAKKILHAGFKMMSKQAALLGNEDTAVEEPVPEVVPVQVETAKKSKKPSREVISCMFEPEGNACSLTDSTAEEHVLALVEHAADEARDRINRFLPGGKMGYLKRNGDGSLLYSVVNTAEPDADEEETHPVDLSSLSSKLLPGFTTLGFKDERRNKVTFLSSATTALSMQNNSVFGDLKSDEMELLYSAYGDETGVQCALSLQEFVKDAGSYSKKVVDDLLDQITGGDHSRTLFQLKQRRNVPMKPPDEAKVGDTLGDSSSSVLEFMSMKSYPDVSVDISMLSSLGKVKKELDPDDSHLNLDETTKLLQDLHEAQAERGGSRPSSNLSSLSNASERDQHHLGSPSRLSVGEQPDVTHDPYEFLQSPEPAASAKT

[2] = biological target: Bromodomain-containing protein 4 (Homo sapiens, UniProt O60885); experiment: Inhibition of BRD4 bromodomain 1 (unknown origin) incubated in dark for 30 mins by TR-FRET assay
[3] = Dissociation constant, pKa of the compound; type: physicochemical
[4] = biological target: T2, Bromodomain-containing protein 9 (Homo sapiens) (UniProt Q9H8M2); experiment: Inhibition of BRD9 in human Kasumi-1 cells assessed as downregulation of CLEC1 gene at 1 uM after 6 hrs by qPCR method; type: cell-based
T2 sequence (whole entry): T1 sequence (Q9H8M2 whole entry)

[5] = biological target: T2, Bromodomain-containing protein 9 (Homo sapiens); experiment: Inhibition of BRD9 in human Kasumi-1 cells assessed as downregulation of DUSP6 gene at 1 uM after 6 hrs by qPCR method; type: cell-based
[6] = biological target: T2, Bromodomain-containing protein 9 (Homo sapiens); experiment: Inhibition of BRD9 in human Kasumi-1 cells assessed as downregulation of FES gene at 1 uM after 6 hrs by qPCR method; type: cell-based
[7] = biological target: T2, Bromodomain-containing protein 9 (Homo sapiens); experiment: Inhibition of BRD9 in human Kasumi-1 cells assessed as downregulation of SAMSN1 gene at 1 uM after 6 hrs by qPCR method; type: cell-based

Row | IC50 [1] [nM] | IC50 [2] [nM] | SMILES | other results
1 | 39.8 | 1580 | Cn1cc(-c2ccccc2)c2sc(C(=N)NC3CCS(=O)(=O)CC3)cc2c1=O | 
2 | 12.6 | 50.1 | COc1ccc(-c2cn(C)c(=O)c3cc(C(=O)NC4CCS(=O)(=O)CC4)sc23)cc1OC | 
3 | 15.8 | 2510 | Cn1cc(-c2cccc(C(F)(F)F)c2)c2sc(C(=N)NC3CCS(=O)(=O)CC3)cc2c1=O | pKa [3]: 8.4
4 | 3980 | 15800 | COc1ccc(-c2cn(C)c(=O)c3cc(C(=O)N4CCCCC4)sc23)cc1OC | 
5 | 79.4 | 1260 | CNC(=N)c1cc2c(=O)n(C)cc(-c3ccc(OC)c(OC)c3)c2s1 | 
6 | 126 | 200 | CNC(=O)c1cc2c(=O)n(C)cc(-c3ccc(OC)c(OC)c3)c2s1 | 
7 | 12.6 | 794 | COc1cccc(-c2cn(C)c(=O)c3cc(C(=N)NC4CCS(=O)(=O)CC4)sc23)c1 | 
8 | 39.8 | 2510 | Cn1cc(-c2cccc(C#N)c2)c2sc(C(=N)NC3CCS(=O)(=O)CC3)cc2c1=O | 
9 | 200 | 20000 | COc1ccc(-c2cn(C)c(=O)c3cc(C(=O)N4CCN(S(C)(=O)=O)CC4)sc23)cc1OC | 
10 | 3160 | > 50100 | CC(C)n1cc(-c2cccc(C(F)(F)F)c2)c2sc(C(=N)NC3CCS(=O)(=O)CC3)cc2c1=O | 
11 |  |  | COc1cc2c(cc1-c1c(C)noc1C)ncc1[nH]c(=O)n([C@H](C)c3ccccn3)c12 | inhibition [4]: inactive; inhibition [5]: inactive; inhibition [6]: inactive; inhibition [7]: inactive
12 | 10 | 501 | CN(C)c1cccc(-c2cn(C)c(=O)c3cc(C(=N)NC4CCS(=O)(=O)CC4)sc23)c1 | 
13 | 7.94 | 398 | COc1ccc(-c2cn(C)c(=O)c3cc(C(=N)NC4CCS(=O)(=O)CC4)sc23)cc1OC | 
14 | 5010 | 12600 | COc1ccc(-c2cn(C)c(=O)c3cc(C(=O)N(C)C)sc23)cc1OC | 
